The source made the active and inactive calls.
Key:
[1] = viability of PTEN-deleted HCT116 cells – cell-based, HCT116 PTEN knockout, dose response (AID 1047); type: functional;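 also: HCT116 colon tumor cells with PTEN knocked out; cells exposed to compound for 60 hours before readout; potency for loss of cell viability measured by luminescence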
[2] = viability of HCT116 lacking mutant beta-catenin – cell-based, human colon tumor, dose response (AID 1045); type: functional;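 also: HCT116 colon tumor cells with beta catenin knocked out; cells exposed to compound for 60 hours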
[3] = molecular target: T1, Heat shock factor protein 1 (Mus musculus, UniProt P38532); experiment: decrease of HSF1-responsive luciferase luminescence – cell-based, NIH3T3, dose retest, confirmation (AID 2382); type: functional;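 also: NIH3T3 fibroblasts with HSF1-driven luciferase reporter stressed by proteasome inhibitor MG132; luminescence from HSF1-driven luciferase expression after 8 hours of MG132 stress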
T1 sequence (P38532 whole entry): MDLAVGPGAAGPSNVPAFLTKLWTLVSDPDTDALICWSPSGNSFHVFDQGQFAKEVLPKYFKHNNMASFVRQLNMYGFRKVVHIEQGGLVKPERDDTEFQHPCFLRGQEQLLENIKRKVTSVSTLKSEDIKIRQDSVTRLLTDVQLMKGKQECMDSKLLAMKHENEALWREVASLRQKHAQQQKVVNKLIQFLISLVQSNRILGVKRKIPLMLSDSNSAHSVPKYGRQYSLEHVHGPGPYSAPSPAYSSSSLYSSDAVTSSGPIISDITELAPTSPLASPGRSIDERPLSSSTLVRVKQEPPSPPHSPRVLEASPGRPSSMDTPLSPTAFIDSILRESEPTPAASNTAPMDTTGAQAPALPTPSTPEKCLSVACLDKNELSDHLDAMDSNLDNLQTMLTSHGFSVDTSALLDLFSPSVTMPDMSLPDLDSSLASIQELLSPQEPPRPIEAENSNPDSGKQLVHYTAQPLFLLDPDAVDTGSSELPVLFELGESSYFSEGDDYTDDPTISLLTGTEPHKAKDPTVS

[4] = tested on: INS1; experiment: INS-1E survival protection against cytokine death – cell-based, luminescence, retest, dose response (AID 449756); type: functional; conditions: Rattus norvegicus;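 also: cell death triggered by IL-1 beta plus TNF-alpha plus IFN-gamma mixture; protective hits raise ATP signal compared with cytokine alone wells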
[5] = molecular target: Cytochrome P450 2C19 (Homo sapiens, UniProt P33261); experiment: Cytochrome panel assay with activity outcomes. Panel member name: p450-cyp2c19 Compounds with AC50 equal or less than 10 uM are considered active; type: functional
Sequence of Cytochrome P450 2C19 (P33261 whole entry): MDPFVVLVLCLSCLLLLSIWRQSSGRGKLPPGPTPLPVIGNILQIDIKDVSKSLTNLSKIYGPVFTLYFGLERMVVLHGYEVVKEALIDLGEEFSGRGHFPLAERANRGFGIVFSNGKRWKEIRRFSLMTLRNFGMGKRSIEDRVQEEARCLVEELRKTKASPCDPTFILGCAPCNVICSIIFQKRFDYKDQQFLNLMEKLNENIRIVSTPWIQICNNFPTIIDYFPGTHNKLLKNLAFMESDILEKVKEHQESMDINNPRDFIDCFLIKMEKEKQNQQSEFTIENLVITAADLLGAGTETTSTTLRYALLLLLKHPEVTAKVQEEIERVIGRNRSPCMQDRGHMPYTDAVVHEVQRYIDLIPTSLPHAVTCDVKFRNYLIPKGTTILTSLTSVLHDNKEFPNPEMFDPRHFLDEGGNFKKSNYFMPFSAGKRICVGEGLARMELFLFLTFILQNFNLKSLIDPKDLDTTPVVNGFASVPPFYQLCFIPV

[6] = luciferase reporter signal suppression in cells – H4 neuroglioma cells, luminescence, dose response (AID 1990); type: functional, cell-based
[7] = Luminescence Cell-Based Dose Response HTS to Identify Inhibitors of 5'UTR Stem-Loop Driven Prion Protein mRNA Translation in H4 Neuroglioblastoma Cells. [Related pubchem assays: 1827 (Project Summary), 1813 (Primary HTS)]; type: functional
[8] = alpha-synuclein stem-loop luciferase translation blockers – H4 neuroglioma cells, luminescence, confirmation (AID 1988); type: functional, cell-based
[9] = molecular target: T2, Cytochrome P450 1A2 (Homo sapiens, UniProt P05177);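 also: PubChem cytochrome P450 panel assay, CYP1A2 panel member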
T2 sequence (P05177 whole entry): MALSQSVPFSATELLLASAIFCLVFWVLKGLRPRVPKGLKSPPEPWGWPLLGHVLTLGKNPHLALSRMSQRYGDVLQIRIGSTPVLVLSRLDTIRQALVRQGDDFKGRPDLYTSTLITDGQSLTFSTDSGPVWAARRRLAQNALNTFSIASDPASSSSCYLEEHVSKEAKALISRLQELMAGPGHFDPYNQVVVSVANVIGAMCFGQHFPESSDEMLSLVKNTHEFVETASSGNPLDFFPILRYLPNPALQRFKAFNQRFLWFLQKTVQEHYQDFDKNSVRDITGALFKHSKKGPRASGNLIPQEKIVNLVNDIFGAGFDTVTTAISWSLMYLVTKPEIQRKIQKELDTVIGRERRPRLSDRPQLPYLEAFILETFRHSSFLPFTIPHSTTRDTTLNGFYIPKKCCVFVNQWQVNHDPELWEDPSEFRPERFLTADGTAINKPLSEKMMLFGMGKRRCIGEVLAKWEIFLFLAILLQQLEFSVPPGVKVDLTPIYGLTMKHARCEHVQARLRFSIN

For `Cc1sc2nc(CN3CCC(C)CC3)nc(Cl)c2c1C`, the EC50 [1] was 18.5 µM (active) and the EC50 [2] was 14.5 µM (active).

In the case of `Fc1ccc(-c2nc3c(-c4ccc(Cl)cc4)cnn3cc2CCN2CCOCC2)cc1`, the EC50 [3] is reported as > 195 µM (not active).

For `Fc1cnc(N2CCc3ccccc32)nc1N1CCc2ccccc21`, the EC50 [1] was 30 µM (active) and the EC50 [2] was 25.5 µM (active).

With `Oc1nc2cc3c(cc2cc1C(c1nnnn1C1CCCC1)N1CCSCC1)OCCO3` (stereo unspecified) the EC50 [1] was 28.9 µM (active) and the EC50 [2] was 94.3 µM (active).

In the case of `Cc1ccc(C2CC(c3cccc(C)c3)n3nc(N)nc3N2)cc1` (stereo unspecified), the AC50 [4] is reported as > 260 µM (inactive).

With `CN(C)c1ncc2nc(-c3ccccc3)c(=O)n(C)c2n1` the AC50 ([5]; read-out: AC50) was 39.8 µM (inconclusive).

For `Cc1ccc(-c2nc3cccnc3o2)cc1NC(=O)COc1ccc(Cl)cc1C`, the EC50 [1] was 5.15 µM (active) and the EC50 [2] was 14.6 µM (active).

In the case of `COc1ccccc1N1CCN(S(=O)(=O)CCNC(=O)C2CC(=O)N(c3ccccc3)C2)CC1` (stereo unspecified), the EC50 [6] is reported as > 120 µM (not active), the EC50 [7] is reported as > 120 µM (not active) and the EC50 [8] is reported as 114 µM (active).

In the case of `COc1ccc(NC(=O)CN(C)CC(=O)Nc2ccc3c(c2)CCC3)cc1`, the EC50 [3] is reported as > 195 µM (not active).

In the case of `Cc1ccc(C(=O)Nc2ccc(Br)c(C(F)(F)F)c2)cc1`, the EC50 [1] is reported as 19.7 µM (active) and the EC50 [2] is reported as 23.8 µM (active).

For `CCCCC(CC)CN1C(=O)/C(=C/c2c[nH]nc2-c2ccccc2)SC1=S` (stereo unspecified), the EC50 [1] was 21.3 µM (active) and the EC50 [2] was 21.1 µM (active).

In the case of `O=C(Oc1ccccc1Cl)c1ccc(-n2cncn2)nc1`, the EC50 [3] is reported as > 195 µM (not active).

For `COC(=O)C1CCC(C)(C(=O)Nc2ccccc2)C1(C)C` (stereo unspecified), the AC50 [9] was 15.8 µM (inconclusive).

With `CC(=O)N1CCc2cc(S(=O)(=O)NCCC3=CCCCC3)ccc21` the AC50 [4] was 4.54 µM (active).

With `CCCc1cc(NCCCCO)n2c(nc3ccccc32)c1C#N` the EC50 [6] was 25.6 µM (active), the EC50 [7] was > 120 µM (not active) and the EC50 [8] was > 120 µM (not active).

For `COc1ccc(NCc2nnc(SCC(=O)Nc3cc(C(F)(F)F)ccc3Cl)o2)cc1`, the EC50 [3] was > 195 µM (not active).

In the case of `NC(=O)C1CCN(CC(=O)Nc2nc(-c3ccccc3)cs2)CC1`, the EC50 [3] is reported as > 195 µM (not active).

With `COc1ccc(C2=NN(C(=O)COc3ncnc4ccccc34)C(c3ccco3)C2)cc1` (stereo unspecified) the EC50 [6] was 13.8 µM (active), the EC50 [7] was > 120 µM (not active) and the EC50 [8] was > 60 µM (not active).

For `COc1ccc(NC(=O)/C(C#N)=C/c2cc(C)n(-c3ccc(N4CCOCC4)c([N+](=O)[O-])c3)c2C)cc1`, the EC50 [6] was > 120 µM (not active), the EC50 [7] was 35.2 µM (active) and the EC50 [8] was > 120 µM (not active).

With `CCN(CC)C(=O)CN1C(=O)/C(=C/c2ccccc2)SC1=S` the EC50 [3] was > 195 µM (not active).

For `C=C(C)COc1ccc2c(C)c(CC(=O)OC)c(=O)oc2c1C`, the EC50 [1] was 81.2 µM (active) and the EC50 [2] was 31.9 µM (active).

For `COc1ccccc1Cn1nnc2c(O)nc(C3CCN(C(=O)c4ccccc4Cl)CC3)nc21`, the EC50 [6] was > 120 µM (not active), the EC50 [7] was > 120 µM (not active) and the EC50 [8] was 68.6 µM (active).

For `CCc1ccc(N(C(=O)c2csnn2)C(C(=O)NC(C)(C)C)c2ccncc2)cc1` (stereo unspecified), the AC50 ([5]; read-out: AC50) was 2.82 µM (inconclusive).

In the case of `CC(=O)N(C(C)=O)c1[nH]cc2c3ccccc3nc-2c1C#N`, the EC50 [6] is reported as 9.63 µM (active), the EC50 [7] is reported as 12.9 µM (active) and the EC50 [8] is reported as 15.7 µM (active).

With `CCCN1CCC(=NNc2ccc(S(=O)(=O)N(CC)CC)cc2[N+](=O)[O-])CC1` the EC50 [6] was 16.5 µM (active), the EC50 [7] was > 120 µM (not active) and the EC50 [8] was 8.05 µM (active).

For `Nn1c(SCC(=O)NC2CCCC2)nnc1-c1ccccc1F`, the EC50 [3] was > 195 µM (not active).

With `CC1CCCN(C(=O)C2(NC(=O)Nc3cccc(F)c3)CCCCC2)C1` (stereo unspecified) the EC50 [3] was > 195 µM (not active).

With `COC(=O)[C@@]1(Cc2ccccc2)[C@H]2c3cc(C(=O)N4CCCC4)[nH]c3C[C@H]2CN1C(=O)c1ccccc1` the AC50 [9] was 1.26 µM (inconclusive).

For `CCCCN1CC(=O)C(c2nc(-c3ccc(Cl)cc3)cs2)=C1N`, the EC50 [6] was > 120 µM (not active), the EC50 [7] was > 120 µM (not active) and the EC50 [8] was > 120 µM (not active).

For `CC(C)(C)C(=O)OCc1nc(-c2ccc3c(c2)OCCO3)cs1`, the EC50 [3] was > 195 µM (not active).

For `O=C(COc1ccc(Cl)cc1Cl)NN=C1c2ccccc2-c2ccccc21`, the EC50 [1] was 7.45 µM (active) and the EC50 [2] was 6.99 µM (active).

For `CCOC(=O)C1=C(CSc2nc3ccccc3s2)NC(=O)NC1c1cccc([N+](=O)[O-])c1` (stereo unspecified), the AC50 ([5]; read-out: AC50) was 1.58 µM (inconclusive).

With `CN1CCN(c2ncc3nc(-c4cccc(C#N)c4)c(=O)n(Cc4ccc(F)cc4)c3n2)CC1` the AC50 ([5]; read-out: AC50) was 10 µM (inconclusive).

For `Cn1c(=O)[nH]c(=O)c2c1nc(N1CCCCCC1)n2Cc1cccc2ccccc12`, the EC50 [6] was 24.4 µM (active), the EC50 [7] was > 120 µM (not active) and the EC50 [8] was 45 µM (active).

For `Cc1c(C=C2C(=O)N(C)C(=O)N(C)C2=O)c(=O)n(-c2ccccc2)n1C`, the EC50 [3] was > 195 µM (not active).

In the case of `Cc1cc(C(=O)CSc2nc3ccccc3c(=O)n2C)c(C)n1Cc1ccc2c(c1)OCO2`, the AC50 [4] is reported as 1.41 µM (active).

For `COc1cccc(NC(S)=NN2CCN(C)CC2)c1`, the AC50 ([5]; read-out: AC50) was 28.2 µM (inconclusive).

In the case of `COc1ccc(-c2nc3scc(-c4ccc(OC)c(OC)c4)c3c(=O)o2)cc1`, the EC50 [1] is reported as 24.7 µM (active) and the EC50 [2] is reported as 16.4 µM (active).

In the case of `Cc1ccc2[nH]c(/C(C#N)=C\c3ccc(Oc4ccc([N+](=O)[O-])cn4)cc3)nc2c1`, the EC50 [1] is reported as 76.4 µM (active) and the EC50 [2] is reported as 46.9 µM (active).

With `O=C(CC1Nc2ccccc2NC1=O)Nc1ccccc1NC(=O)CC1Nc2ccccc2NC1=O` (stereo unspecified) the EC50 [3] was > 195 µM (not active).

With `COC(=O)c1ccc(CSc2ccc3nnc(-c4ccccc4)n3n2)o1` the EC50 [6] was > 120 µM (not active), the EC50 [7] was 15.7 µM (active) and the EC50 [8] was 16.6 µM (active).

For `CCCn1c(C)cc(=O)c2cc(NC(=O)c3cnccn3)ccc21`, the EC50 [1] was 33.7 µM (active) and the EC50 [2] was 19.9 µM (active).

In the case of `Cc1nc(SCC(=O)NCC2CCCO2)nc(O)c1C` (stereo unspecified), the EC50 [3] is reported as > 195 µM (not active).

For `OC[C@H]1O[C@H](n2cnc3c(NC4CCCC4)nc(Cl)nc32)[C@@H](O)[C@@H]1O`, the AC50 [9] was 39.8 µM (inconclusive).

In the case of `Cc1occc1-c1nnc(SCC(=O)Nc2ccccc2)n1C`, the EC50 [3] is reported as > 195 µM (not active).

With `O=C(c1csnn1)N1CCC[C@@]2(CCN(c3ncccn3)C2)C1` the AC50 [9] was 12.6 µM (inconclusive).

In the case of `N[C@](CC1c2ccccc2Oc2ccccc21)(C(=O)O)[C@@H]1C[C@@H]1C(=O)O`, the AC50 [9] is reported as 31.6 µM (inconclusive).

With `O=c1n(Cc2ccccc2F)c2ccccc2n1Cc1ccccc1F` the EC50 [6] was 22 µM (active), the EC50 [7] was > 120 µM (not active) and the EC50 [8] was > 120 µM (not active).

For `O=C(/C=C/c1ccc(Br)o1)NCCCN1CCOCC1`, the EC50 [3] was > 195 µM (not active).

With `Cc1cccc(N(CC(=O)N2CCOCC2)S(C)(=O)=O)c1` the AC50 [5] was “inconclusive”.

For `O=C(O)CCC(=O)Nc1ccc2ccccc2c1`, the AC50 [9] was 0.0631 µM (inconclusive).

For `O=C(/C=C/c1ccccc1)Nc1ccc2c(c1)OCCO2`, the EC50 [6] was 10.7 µM (inconclusive), the EC50 [7] was 10.4 µM (inconclusive) and the EC50 [8] was 9.98 µM (inconclusive).

For `Cc1c(C(=O)NN2CCCCC2)nn(-c2ccc(Cl)cc2Cl)c1-c1ccc(I)cc1`, the EC50 [6] was 11.3 µM (active), the EC50 [7] was > 120 µM (not active) and the EC50 [8] was 12.4 µM (active).

With `O=c1c2ccccc2nc(COc2ccccc2)n1/N=C/c1c[nH]nc1-c1ccccc1` the EC50 [1] was 19.6 µM (active) and the EC50 [2] was 24.5 µM (active).

For `O=C(N/N=C\c1cn(-c2ccccc2)nc1-c1ccccc1)c1ccc2c(c1)OCO2`, the AC50 [9] was 3.55 µM (inconclusive).

For `CN(C)c1ccc(/C=N/NC(=O)C2COc3ccccc3O2)o1` (stereo unspecified), the EC50 [3] was > 195 µM (not active).

In the case of `CCCSc1nnc(CSc2nc3nc(C)cc(C)n3n2)o1`, the AC50 ([5]; read-out: AC50) is reported as 15.8 µM (inconclusive).

With `Cc1ccc(C)c(OCCCC(C)(C)C(=O)O)c1` [GEMFIBROZIL] the AC50 [9] was 12.6 µM (inconclusive).
